Read-outs that look alike come from different tables or passages of the source. Where no end group is shown, it is not given here. [ ]: non-standard residue; d: D form. pS = N[C@@H](COP(=O)(O)O)C(=O)O
What was measured:
Assay type in all cases: cell-based
[1] = system: F11 cells transfected with V642I-APP cDNA; assay: F11 cell death by V642I-APP transfection (Trypan blue exclusion); conditions: for % dead cells of total cells: 72 hr after transfection; for cytotoxicity by V642I-APP in the presence of peptide (% dead cells of total cells): each peptide 10 μM, V642I-APP alone 53.7±1.2%, without transfection 9.0±1.4
From the text: (§1) In one assay, transfection with V642I-APP causes cell death in F11 neuronal hybrid cells. In the other, treatment with Aβ peptides causes cell death in primary cultured cortical neurons.
(§2) F11 cells, the hybrid of a rat embryonic-day-13 primary cultured primary neuron and a mouse neuroblastoma cell, are one of the best models for primary cultured neurons as they carry representative characteristics of primary neurons, such as generation of action potentials without differentiation by NGF [22]. They have been used in various studies of is neuronal functions. Using these cells, the underlying mechanisms for cytotoxicity by V642I-APP have well been analyzed. Cytotoxicity by V642 mutants of APP has also been confirmed in multiple different systems. F11 cells were grown in Ham's F-12 (GibcoBRL, Gaithersburg, Md.) plus 18% fetal bovine serum (FBS; Hyclone, Logan, Utah) and antibiotics, as described previously. F11 cells (7×10^4 cell/well in a 6-well plate cultured in Ham's F-12 plus 18% FBS for 12-16 hr) were transfected with plasmids encoding FAD genes by lipofection [FAD cDNA 2 μg, LipofectAMINE 4 μl, PLUS reagent 8 μl (GibcoBRL)] in the absence of serum for 3 hr, and were incubated with Ham's F-12 plus 18% FBS for 2 hr. Then, culture media were changed to Ham's F-12 plus 10% FBS with or without HN peptides, and cells were cultured for an additional 67 hr. Seventy-two hr after transfection, cell mortality was measured by Trypan blue exclusion assay, performed as follows. Cells were suspended by pipetting gently, and 50 μl of 0.4% (finally 0.08%) Trypan blue solution (Sigma, St Louis, Mo.) was mixed with 200 μl of the cell suspension at room temperature. Stained cells were counted within 3 min after the mixture with Trypan blue solution.

[2] = system: primary cultured neurons treated with 25 μM Aβ1-43; conditions: for Calcein fluorescence, percentage of neurons without treatment: 72 hours, means±S.D.
Experimental: as §1
(§3) The primary culture of mouse cortical neurons was performed in poly-L-lysine-coated 24-well plates or 96-well plates (Sumitomo Bakelite, Akita, Japan), in the absence of serum and the presence of N2 supplement, as described previously. The purity of neurons by this method was >98%. Prepared neurons (for neurons seeded in 96-well plates: 2.5×10^4 or 5×10^4 cells/well, 100 μl culture medium/well; for neurons seeded in 24-well plates: 1.25×10^5 cells/well, 250 μl culture medium/well) were preincubated with or without 10 μM (in case for the experiment with 10 μM HN) synthetic HN for 16 hr, and treated with 25 μM Aβ in the presence or absence of 10 μM HN for 72 hr, respectively. As primary neurons were vulnerable to transient dryness during medium exchange, we treated neurons with 25 μM Aβ as follows. First, a half volume (50 μl for neurons in 96-well plates; 125 μl for neurons in 24-well plates) of old medium was discarded. Then, the same volume (50 μl for neurons in 96-well plates; 125 μl for neurons in 24-well plates) of prewarned fresh medium containing 10 μM HN and 50 μM Aβ (Aβ was directly resolved) was added to the culture. The Aβ peptides used at 25 μM to induce neurotoxicity formed aggregation in the medium during the cell culture at 37° C. for 72 hr. as described. The WST-8 cell viability assay was performed, using Cell Counting Kit-8 (Wako Pure Chemical Industries, Osaka, Japan), as described previously.
(§4) Calcein assay was performed with Calcein-AM {3′,6′-di-(O-acetyl)-2′,7′-bis [N,N-bis(carboxymethyl)aminomethyl] fluorescein, tetraacetoxymethyl ester; Dojindo}, as described previously. These assays were simultaneously performed in the experiments with neurons seeded in 96-well plates, as follows. Seventy-two hours after Aβ treatment, cells were added with the mixture of 10 μl WST-8 solution and 1 μl of 600 μM Calcein-AM. After 2 hr incubation in a CO2 incubator at 37° C., WST-8 absorbance was measured as OD450. After exchanging the medium to PBS to lower the background, Calcein-specific fluorescence (ex=485 nm, em=535 nm) was observed by fluorescence microscopy or measured by a spectrofluorometer (Wallac1420 ARVOsx Multi Label Counter). Most cell viability data using Calcein assay and WST-8 assay were obtained from neurons seeded at 5×10^4 cells/well in 96-well plates (high-density neurons) and confirmed by both assays with the cells seeded at 2.5×10^4 cells/well (low-density neurons).
Some experiments for Calcein assay were performed with neurons seeded in 24-well plates. […] In most experiments using primary neurons, four independent experiments were performed and the means? S. D. of the results were discussed.

[3] = system: Aβ and four FAD genes (V642I-APP, NL-APP, M146L-PS1, and N141I-PS2); conditions: Table 5, marked *
From the text: as §2, §3
as §4, with “Most cell viability data using Calcein assay and WST-8 assay were obtained from neurons seeded at 5×10^4 cells/well in 96-well plates (high-density neurons) and confirmed by both assays with the cells seeded at 2.5×10^4 cells/well (low-density neurons).” left out

Aβ and V642I-APP = conditions: Table 5, marked **
From the text: as §2, §3
as §4, with “Most cell viability data using Calcein assay and WST-8 assay were obtained from neurons seeded at 5×10^4 cells/well in 96-well plates (high-density neurons) and confirmed by both assays with the cells seeded at 2.5×10^4 cells/well (low-density neurons).” left out

MAPRGFSALLLLTSEIDLPVKRRA [HNA, reference compound]
cytoprotective action against V642I-APP (in words) ([1]; F11 cells): completely inactive | neuroprotective action against Aβ1-43 (in words) ([2]; 25 μM Aβ1-43, primary neurons): completely inactive | Full protection [3]: NE* (the corresponding peptide had no cytoprotective effect at 10 μM) | IC50 ([3]; read-out: IC50): > 10000 nM

MAPRGFSCLLLLT(p-S)EIDLPVKRRA (MAPRGFSCLLLLT[pS]EIDLPVKRRA) [P-S14 HN, p-S is phosphorylated L-Ser]
% dead cells of total cells ([1]; V642I-APP + 10 pM peptide, means±S.D., V642I-APP alone 52.9 ± 1.1): 56.5 ± 4.1% | % dead cells of total cells ([1]; V642I-APP + 100 pM peptide): 56.3 ± 2.7% | % dead cells of total cells ([1]; V642I-APP + 1 nM peptide): 54.3 ± 1.2% | % dead cells of total cells ([1]; V642I-APP + 10 nM peptide): 53.4 ± 2.0% | % dead cells of total cells ([1]; V642I-APP + 100 nM peptide): 41.8 ± 1.8 % | Calcein fluorescence, percentage of neurons without treatment ([2]; 25 μM Aβ1-43 + 10 pM peptide, Aβ alone 8.9 ± 0.8): 8.6 ± 0.3% | Calcein fluorescence, percentage of neurons without treatment ([2]; 25 μM Aβ1-43 + 100 pM peptide): 8.6 ± 0.4% | Calcein fluorescence, percentage of neurons without treatment ([2]; 25 μM Aβ1-43 + 1 nM peptide): 8.9 ± 0.1% | Calcein fluorescence, percentage of neurons without treatment ([2]; 25 μM Aβ1-43 + 10 nM peptide): 8.6 ± 0.3% | Calcein fluorescence, percentage of neurons without treatment ([2]; 25 μM Aβ1-43 + 100 nM peptide): 8.6 ± 0.1% | Calcein fluorescence, percentage of neurons without treatment ([2]; 25 μM Aβ1-43 + 1 μM peptide): 85.8 ± 4.1 % | Calcein fluorescence, percentage of neurons without treatment ([2]; 25 μM Aβ1-43 + 10 μM peptide): 104.1 ± 1.7 % | Full protection (minimal concentration that exerted full cytoprotection) (Aβ and V642I-APP): ˜10 μM

MAPRGFSCLLLLTEEIDLPVKRRA [(S14E)HN]
cytotoxicity by V642I-APP in the presence of peptide (% dead cells of total cells) [1]: 45.0±1.9%

MAPRGFSCLLLLTREIDLPVKRRA [(S14R)HN]
cytotoxicity by V642I-APP in the presence of peptide (% dead cells of total cells) [1]: 52.6±1.0%

MAPRGFSCLLLLTTEIDLPVKRRA [(S14T)HN]
cytotoxicity by V642I-APP in the presence of peptide (% dead cells of total cells) [1]: 54.0±2.3%

MAPRGFSCLLLLTWEIDLPVKRRA [(S14W)HN]
cytotoxicity by V642I-APP in the presence of peptide (% dead cells of total cells) [1]: 54.5±4.2%

PRGFACLLLLTGEIDLP [S7A HNG17, PRGFACLLLLTGEIDLP]
IC50 [2]: ~1 nM | concentration of full neuroprotection against Aβ1-43 ([2]; 25 μM Aβ1-43): about 10 nM | Full protection (minimal concentration that exerted full cytoprotection) (Aβ and V642I-APP): ˜10 nM

Source: patent publication US20050233413A1, “Neuroprotective polypeptides and methods of use” (priority 2002, published 2005)
